Literature values in article PMC8583936, “Machine Learning Assisted Approach for Finding Novel High Activity Agonists of Human Ectopic Olfactory Receptors” (International Journal of Molecular Sciences, 2021).
Counter-ions that a name gives are not always drawn. Like-named read-outs stand apart in the source and are kept apart here.

What was measured:
[1] = biological target: T1, OR1A1 (Homo sapiens, UniProt Q9P1Q5); settings: cited from earlier work
T1 sequence (Q9P1Q5 1-309): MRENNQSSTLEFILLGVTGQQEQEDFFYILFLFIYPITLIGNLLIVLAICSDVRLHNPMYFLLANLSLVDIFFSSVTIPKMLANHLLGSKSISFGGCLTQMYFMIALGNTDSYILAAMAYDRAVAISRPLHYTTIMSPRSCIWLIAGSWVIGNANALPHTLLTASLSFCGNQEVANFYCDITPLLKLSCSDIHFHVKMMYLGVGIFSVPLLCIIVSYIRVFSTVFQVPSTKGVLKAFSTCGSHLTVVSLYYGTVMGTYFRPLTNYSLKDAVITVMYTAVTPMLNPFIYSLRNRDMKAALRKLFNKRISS

[2] = biological target: T2, OR2W1 (Homo sapiens, UniProt Q9Y3N9); settings: cited from earlier work
T2 sequence (Q9Y3N9 1-320): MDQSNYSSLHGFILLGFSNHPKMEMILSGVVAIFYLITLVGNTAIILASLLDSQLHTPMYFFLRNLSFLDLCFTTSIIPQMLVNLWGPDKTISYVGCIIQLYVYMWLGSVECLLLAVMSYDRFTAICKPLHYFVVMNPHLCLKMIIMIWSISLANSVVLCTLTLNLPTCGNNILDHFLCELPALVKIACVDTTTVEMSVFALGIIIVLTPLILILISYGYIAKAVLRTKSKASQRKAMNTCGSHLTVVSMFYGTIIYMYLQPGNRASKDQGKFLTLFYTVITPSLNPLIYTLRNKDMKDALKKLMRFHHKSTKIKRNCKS

[3] = Table S1, ref Supplement references [1]-[9] as printed after each odorant name
[4] = Table S2, ref Supplement references [2]-[12] as printed after each odorant name

Compound	Class (agonist / non-agonist / conflicting info.) for OR1A1 [1]	Class (agonist / non-agonist / antagonist / conflicting info.) for OR2W1 [2]	Class (agonist / non-agonist / conflicting info.) for OR1A1 [1, 3]	Class (agonist / non-agonist / antagonist / conflicting info.) for OR2W1 [2, 4]	Class (agonist / non-agonist / antagonist / conflicting info.) for OR2W1 ([2]; Table S2, ref Supplement references [2]-[12] as printed after each odorant name, listed as Capric acid)
C=CCOC(=O)CCCCCC [Allyl heptanoate]	Agonist	Non-agonist			
C=CCSC [Allyl methyl sulfide]			Non-agonist	Non-agonist	
C=CCOC(=O)Cc1ccccc1 [Allyl phenylacetate]	Agonist	Agonist			
CC1=CC[C@H](C(C)C)C=C1 [Alpha-phellandrene]			Non-agonist	Non-agonist	
CCCCCOC(=O)CCC [Amyl butyrate]			Conflicting info.	Non-agonist	
CCCCCOC(=O)CCCCC [Amyl hexanoate]			Conflicting info.	Non-agonist	
C[C@@]12C=CC[C@H]1[C@@H]1CCC3=CC(=O)CC[C@]3(C)[C@H]1CC2 [Androstadienone]	Agonist	Antagonist			
C[C@]12CCC(=O)C[C@@H]1CC[C@@H]1[C@@H]2CC[C@]2(C)C=CC[C@@H]12 [Androstenone]	Conflicting info.	Antagonist			
COc1ccc(C=O)cc1 [Anisaldehyde]			Non-agonist	Non-agonist	
c1ccccc1 [Benzene]			Conflicting info.	Non-agonist	
CC(=O)OCc1ccccc1 [Benzyl acetate]			Agonist	Agonist	
C/C=C/C(=O)C1=C(C)CCCC1(C)C [Beta-damascone]			Conflicting info.	Non-agonist	
CSCSC [Bis(methylthio)methane]	Non-agonist	Non-agonist			
CCCC=O [Butanal]			Non-agonist	Non-agonist	
CCCCOC(C)=O [Butyl acetate]			Non-agonist	Non-agonist	
CCCCOC(=O)c1ccccc1N [Butyl anthranilate]	Agonist	Agonist			
CCCCOC(=O)C(C)OC(=O)CCC (centres unmarked) [Butyl butyryl lactate]			Non-agonist	Non-agonist	
CCCCOC=O [Butyl formate]			Conflicting info.	Conflicting info.	
CCCCCCC(=O)OCCCC [Butyl heptanoate]			Non-agonist	Non-agonist	

Compound	Class (agonist / non-agonist / conflicting info.) for OR1A1 [1]	Class (agonist / non-agonist / antagonist / conflicting info.) for OR2W1 [2]	Class (agonist / non-agonist / conflicting info.) for OR1A1 [1, 3]	Class (agonist / non-agonist / antagonist / conflicting info.) for OR2W1 [2, 4]	Class (agonist / non-agonist / antagonist / conflicting info.) for OR2W1 ([2]; Table S2, ref Supplement references [2]-[12] as printed after each odorant name, listed as Capric acid)
CCCC(=O)O [Butyric acid]			Conflicting info.	Conflicting info.	
O=C/C=C/c1ccccc1 [Cinnamaldehyde]			Agonist	Non-agonist	
CC(=O)OC/C=C/c1ccccc1 [Cinnamyl acetate]			Non-agonist	Agonist	
OCC=Cc1ccccc1 [Cinnamyl alcohol]			Non-agonist	Non-agonist	
CC/C=C\CCO [Cis-3-hexen-1-ol]			Conflicting info.	Conflicting info.	
CC(C)=CCC/C(C)=C/C=O [Citral]	Conflicting info.	Conflicting info.			
O=c1ccc2ccccc2o1 [Coumarin]			Non-agonist	Conflicting info.	
CC(C)c1ccc(C=O)cc1 [Cuminaldehyde]			Non-agonist	Non-agonist	
O=C1CCCCC1 [Cyclohexanone]			Non-agonist	Non-agonist	
C/C=C/C(=O)C1=C(C)C=CCC1(C)C [Damascenone]			Non-agonist	Non-agonist	
CCCCCCCCCC=O [Decanal]			Conflicting info.	Non-agonist	
CCCCCCCCCC(=O)O [Decanoic acid / capric acid]			Non-agonist		Conflicting info.
CCCCCC1CCCC(=O)O1 (centres unmarked) [Delta-decalactone]			Non-agonist	Non-agonist	
CCCCCCCC1CCCC(=O)O1 (centres unmarked) [Delta-dodecalactone]			Non-agonist	Non-agonist	
CC(=O)C(C)=O [Diacetyl]			Non-agonist	Non-agonist	
CCCCCC1=C(C)CCC1=O [Dihydrojasmone]			Agonist	Agonist	
CC1(C)CC(=O)CC(=O)C1 [Dimedone]			Non-agonist	Non-agonist	
CSSC [Dimethyl disulfide]	Conflicting info.	Non-agonist			
